Results on 34 molecules are retold here after PubChem BioAssay AID2765 (Broad Institute, 2010).

Active and inactive are the calls of the source.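 How the source made its calls: active means half-maximal concentration for the rise in caspase light signal at or below ten times the top tested dose; inconclusive means flat fit between 30% and 70% activity, or unreliable curve fit; inactive means the rest.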

This assay concerns MEF A1-2A-BIM cells, caspase 3/7 luminescence, 3 h. Kind of assay: caspase activation in A1-2A-BIM MEF cells, dose response, A1 inhibitor project, cell-based, luminescence, retest (AID 2765).
As to `Cn1cccc1C(=O)NC(=O)COC(=O)c1ccc(S(C)(=O)=O)cc1`, the EC50 – broadly, the midpoint of the concentration-response curve – is > 35 µM (inactive).
As for `Cc1ccc(NC(=O)CCN2CCOCC2)cc1C`, the figure is > 35 µM (inactive); as for `Cc1cc(N2C(=O)C(O)=C(C(=O)c3cc4ccccc4o3)C2c2ccc(Br)cc2)no1` (centres undefined), > 35 µM (inactive).
For `O=C(CN1C(=O)c2ccccc2S1(=O)=O)N1CCN(Cc2ccc3c(c2)OCO3)CC1` the value was > 35 µM (inactive); for `CC1CCc2nn(CC(=O)NCCCN3CCCC3=O)cc2C1` (centres undefined), > 35 µM (inactive).
In the case of `O=C(NCCO)C(=O)Nc1cc2c3c(c1)CCN3C(=O)CC2`, the EC50 was > 35 µM (inactive).
With `Cc1cc(C)n(-c2nc(Nc3ccccc3C)nc(-n3nc(C)cc3C)n2)n1`, the EC50 was > 35 µM (inactive).
As for `COCc1cc(C)nc(SCC(=O)Nc2ccc3c(c2)OCO3)c1C#N`, the EC50 was > 35 µM (inactive).
In the case of `OC(Cn1cncn1)(Cn1cncn1)c1ccc(F)cc1F`, the EC50 is > 35 µM (inactive).
As for `COc1ccc(N2CCN(C(=O)C3CCN(C(=O)c4ccc([N+](=O)[O-])cc4)CC3)CC2)cc1`, the figure is > 35 µM (inactive).
Regarding `Cc1ccc(CNC(=O)CCS(=O)(=O)c2ccc3c(c2)CC(C)N3C(=O)C2CC2)o1` (centres undefined), the EC50 was > 35 µM (inactive).
As for `O=C(O)CCN1C(=O)/C(=C\c2ccncc2)SC1=S`, the figure is > 35 µM (inactive); as for `COc1ccc(-c2csc(NC(=O)Cc3ccccc3F)n2)c(OC)c1`, > 35 µM (inactive).
For `Cc1ccc(N=C2C(=O)Nc3ccc(C)c(Br)c32)cc1` the value was > 35 µM (inactive); for `Cc1c(C(=O)O)sc2nc(-c3cccs3)cc(C(F)(F)F)c12`, > 35 µM (inactive).
For `O=[N+]([O-])c1ccccc1S(=O)(=O)N1CCN(S(=O)(=O)c2ccc3c(c2)OCCO3)CC1` the value was > 35 µM (inactive); for `O=C1NCCCC1C(=O)N/N=C/c1cccc([N+](=O)[O-])c1` (centres undefined), > 35 µM (inactive).
For the molecule `COc1ccc(Nc2cc3n(c(=O)n2)CCc2cc(OC)c(OC)cc2-3)c(C)c1`, the EC50 is > 35 µM (inactive).
With `Cc1ccccc1N=C1NC(=O)C(CO)(CO)S1`, the EC50 is > 35 µM (inactive).
With `O=C(c1c[nH]c2ccccc12)C(Cl)c1ccccc1` (centres undefined), the EC50 is > 35 µM (inactive).
For `Cc1ccc(S(=O)(=O)c2nnn3c2nc(Nc2cccc(C)c2)c2ccccc23)cc1` the value was > 35 µM (inactive); for `O=C(NCCCN1CCCCC1)c1ccc2c(c1)NC(=O)c1ccccc1S2`, > 35 µM (inactive); for `O=C1CC(C(=O)Nc2ccccc2)C2(CCCCC2)O1` (centres undefined), > 35 µM (inactive).
For `CNC(=O)Nc1ccc(Cn2cc(C(F)(F)F)ccc2=O)cc1` the value was > 35 µM (inactive).
For `CN(C)C=NC(=O)c1cc(C(=O)c2ccc(Cl)cc2Cl)c[nH]1` the value was > 35 µM (inactive); for `COc1ccccc1N1CCN(C(c2ccccc2)c2nnnn2CCc2ccccc2)CC1` (centres undefined), > 35 µM (inactive).
`Cc1c(C(=O)c2ccccc2C(=O)O)sc2ccccc12`: the EC50 was > 35 µM (inactive).
As for `O=C(CSc1nccc(=O)[nH]1)Nc1ccccc1Sc1ccccc1`, the figure is > 35 µM (inactive); as for `Cc1ccc(C(=O)/C=C/C(=O)c2ccc(C)cc2)cc1`, 19.4 µM.
As for `O=C(CCNc1n[nH]c(=O)[nH]c1=O)N/N=C/c1ccc(C(F)(F)F)cc1`, the figure is > 35 µM (inactive); as for `O=C(NCc1ccccc1)c1ccc(C(=O)N(C2CCCCC2)C2CCCCC2)cc1`, > 35 µM (inactive); as for `COc1cc(CN2CCCC(C(=O)Nc3ccccc3Oc3cccnc3)C2)ccc1F` (centres undefined), > 35 µM (inactive).
For `CN(C)c1ccc(S(=O)(=O)N(C)C)cc1[N+](=O)[O-]` the value was > 35 µM (inactive); for `CCc1cc(=O)oc2cc(C)cc(OCC(=O)NC3CCN(Cc4ccccc4)CC3)c12`, > 35 µM (inactive).
